Measured values taken from publication PMC7413254 (Nature Communications, 2020).
Where two headings read alike, the source gives them in different places.

Columns and labels:
[1] = test system: non-expressing oocytes; test: cells; format: cell-based, Xenopus laevis; settings: Xenopus laevis, total [3H]CQ transport; for inhibition at 500 µM: [test solute] = 0.5 mM; for inhibition at 1000 µM: [test solute] = 1 mM; for inhibition at 2000 µM: [test solute] = 2 mM
How it was run: (§1)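 ND96, pH 5.5, 1.5 h, 27.5 °C; uptake direction acidic outside → oocyte cytosol, mimicking efflux from digestive vacuole. Ice-cold wash stop, 10% SDS lysis, scintillation counting. Ten oocytes/treatment, ≥4 independent experiments.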

[2] = molecular target: T1, PfCRT^3D7 (Plasmodium falciparum, UniProt Q8IBZ9); test: cell-based; format: cell-based; settings: total [3H]CQ transport; for inhibition at 500 µM: [test solute] = 0.5 mM; for inhibition at 1000 µM: [test solute] = 1 mM; for inhibition at 2000 µM: [test solute] = 2 mM
T1 sequence (Q8IBZ9 59-398): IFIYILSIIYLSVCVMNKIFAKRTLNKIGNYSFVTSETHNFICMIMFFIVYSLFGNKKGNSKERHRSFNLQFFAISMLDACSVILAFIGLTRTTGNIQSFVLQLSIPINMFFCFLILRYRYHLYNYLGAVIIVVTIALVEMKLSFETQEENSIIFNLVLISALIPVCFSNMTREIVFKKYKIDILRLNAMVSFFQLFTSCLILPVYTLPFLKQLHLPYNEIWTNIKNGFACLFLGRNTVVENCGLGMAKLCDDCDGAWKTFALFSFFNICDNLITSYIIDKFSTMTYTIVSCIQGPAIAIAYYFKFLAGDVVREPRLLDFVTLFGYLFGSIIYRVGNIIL
How it was run: as §1

[3] = molecular target: T2, PfCRT^Dd2 (Plasmodium falciparum, UniProt Q9N623, A220S/I356T/K76T/M74I/N326S/N75E/Q271E/R371I); test: [3H]CQ uptake into Xenopus oocytes, cis-inhibition by unlabelled solute; format: cell-based
T2 sequence (Q9N623 whole entry A220S/I356T/K76T/M74I/N326S/N75E/Q271E/R371I): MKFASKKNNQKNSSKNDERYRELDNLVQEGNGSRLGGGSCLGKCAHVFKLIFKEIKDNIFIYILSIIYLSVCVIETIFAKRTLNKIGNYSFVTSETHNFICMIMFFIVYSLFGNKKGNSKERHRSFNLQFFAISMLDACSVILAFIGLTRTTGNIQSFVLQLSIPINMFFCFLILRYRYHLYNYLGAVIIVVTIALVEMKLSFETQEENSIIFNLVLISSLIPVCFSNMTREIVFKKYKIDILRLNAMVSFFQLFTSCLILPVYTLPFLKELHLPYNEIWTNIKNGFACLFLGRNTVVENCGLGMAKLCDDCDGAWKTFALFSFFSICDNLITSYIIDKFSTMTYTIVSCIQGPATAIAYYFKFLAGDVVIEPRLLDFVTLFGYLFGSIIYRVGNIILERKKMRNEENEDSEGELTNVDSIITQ
How it was run: as §1

[4] = molecular target: T3, PfCRT^Ecu1110 (Plasmodium falciparum, UniProt Q9N623, A220S/I356L/K76T/N326D); test: as above; format: cell-based
T3 sequence (Q9N623 whole entry A220S/I356L/K76T/N326D): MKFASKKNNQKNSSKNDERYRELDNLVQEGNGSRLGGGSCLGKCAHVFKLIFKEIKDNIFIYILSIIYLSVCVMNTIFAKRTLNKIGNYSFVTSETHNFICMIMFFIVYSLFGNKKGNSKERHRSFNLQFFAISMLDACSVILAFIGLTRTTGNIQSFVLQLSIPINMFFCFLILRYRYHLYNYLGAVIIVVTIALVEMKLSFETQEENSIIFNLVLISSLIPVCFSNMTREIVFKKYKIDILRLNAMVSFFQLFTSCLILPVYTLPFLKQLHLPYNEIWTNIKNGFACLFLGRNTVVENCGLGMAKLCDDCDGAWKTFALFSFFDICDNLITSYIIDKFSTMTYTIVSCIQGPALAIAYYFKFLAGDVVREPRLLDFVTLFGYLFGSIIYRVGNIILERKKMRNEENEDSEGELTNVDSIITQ
How it was run: as §1

[5] = test system: non-expressing oocytes; format: cell-based, Xenopus laevis; settings: total [3H]CQ transport; for Uptake of [3H]CQ (% non-expressing oocyte control), trans-stimulation: non-expressing oocytes, normalised to the oocyte type control; for Uptake of [3H]CQ (% PfCRTDd2 control), trans-stimulation, non-expressing oocytes: mean ± SEM, SEM
How it was run: (§2)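 Oocytes (ten per treatment, ≥4 independent frogs/days) were preloaded by injecting VF-6 in 25 nL ND96 at pH 5.0, 5.5, 6.0 or 7.0, or Na^+-free choline buffer, then uptake run 1.5 h, 27.5 °C, ND96 pH 5.5 by default. Internal concentrations assumed ~400 nL oocyte volume.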

[6] = molecular target: T1, PfCRT^3D7; test: cell-based; format: cell-based
How it was run: as §2

[7] = molecular target: T2, PfCRT^Dd2; test: cell-based; format: cell-based; settings: […]; for activity at 45000 µM: [test solute]i = 45 mM (30 mM for some solutes due to solubility)
How it was run: as §2

[8] = molecular target: T3, PfCRT^Ecu1110; test: cell-based; format: cell-based; settings: […]
How it was run: as §2

[9] = molecular target: T4, PfNT1 (Plasmodium falciparum, UniProt Q8IDM6); test: cell-based; format: cell-based; settings: […], read-out: Uptake of [3H]CQ (% PfCRTDd2 control), trans-stimulation, PfNT1; SEM
T4 construct: expressed in transfected cells; host or cells: Xenopus laevis oocytes (stage V-VI), cRNA-injected
T4 sequence (Q8IDM6 whole entry): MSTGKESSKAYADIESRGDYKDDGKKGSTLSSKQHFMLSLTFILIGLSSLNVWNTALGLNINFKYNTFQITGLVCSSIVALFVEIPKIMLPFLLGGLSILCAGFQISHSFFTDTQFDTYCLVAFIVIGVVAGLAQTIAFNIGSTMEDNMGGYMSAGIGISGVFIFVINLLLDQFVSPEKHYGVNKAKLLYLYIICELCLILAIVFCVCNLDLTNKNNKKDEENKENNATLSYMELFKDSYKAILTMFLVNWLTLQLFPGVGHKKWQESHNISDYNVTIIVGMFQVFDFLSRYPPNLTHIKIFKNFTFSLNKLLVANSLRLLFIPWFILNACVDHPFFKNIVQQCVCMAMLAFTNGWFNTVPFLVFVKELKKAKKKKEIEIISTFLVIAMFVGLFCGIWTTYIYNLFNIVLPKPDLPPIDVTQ
How it was run: as §2

[10] = test system: PfCRT; test: Influx of VF-6 via PfCRT into the oocyte, solutes tested as potential co-substrates; format: cell-based, Plasmodium falciparum; design: key: X: Compounds that have been tested as potential co-substrates but are not required for influx of VF-6 via PfCRT into the oocyte; settings: X marks the solute
[11] = test system: PfCRT; test: Test of solutes as potential co-substrates for influx of VF-6 via PfCRT into the oocyte; format: cell-based, Plasmodium falciparum; design: key: X: Compounds that have been tested as potential co-substrates but are not required for influx of VF-6 via PfCRT into the oocyte; settings: X = tested
[12] = Oocyte, mean ± SEM, SEM, read-out: Uptake of [3H]CQ (% PfCRTDd2 control), cis-inhibition, non-expressing oocytes
[13] = non-expressing oocytes, normalised to the oocyte type control, read-out: Uptake of [3H]CQ (% non-expressing oocyte control), cis-inhibition
[14] = PfCRT3D7 oocytes, normalised to the oocyte type control, read-out: Uptake of [3H]CQ (% PfCRT3D7 control), cis-inhibition
[15] = mean ± SEM, SEM, read-out: Uptake of [3H]CQ (% PfCRTDd2 control), cis-inhibition, PfCRT3D7
[16] = read-out: PfCRT-mediated [3H]CQ transport, cis-inhibition (% PfCRTDd2 control)
[17] = read-out: Uptake of [3H]CQ (% PfCRTDd2 control), cis-inhibition
[18] = read-out: Uptake of [3H]CQ (% PfCRTDd2 control), cis-inhibition, PfCRTDd2, SEM
[19] = read-out: [3H]CQ transport (% PfCRTDd2 control), cis-inhibition, PfCRTDd2, SEM
[20] = read-out: PfCRT-mediated [3H]CQ transport, cis-inhibition (% PfCRTEcu1110 control)
[21] = read-out: Uptake of [3H]CQ (% PfCRTDd2 control), cis-inhibition, PfCRTEcu1110, SEM
[22] = read-out: Uptake of [3H]CQ (% PfCRTEcu1110 control), cis-inhibition
[23] = read-out: [3H]CQ transport (% PfCRTEcu1110 control), cis-inhibition, PfCRTEcu1110, SEM

SMILES: N[C@@H](CCC(=O)O)C(=O)O [L-glutamic acid]
- inhibition at 500 µM [1, 12]: 2.5 ± 0.05%
- inhibition at 1000 µM [1, 12]: 2.7 ± 0.07%
- inhibition at 2000 µM [1, 12]: 3.8 ± 0.07%
- inhibition at 500 µM [1, 13]: 98 ± 4.7%
- inhibition at 1000 µM [1, 13]: 98 ± 3.7%
- inhibition at 2000 µM [1, 13]: 98 ± 5.2%
- inhibition at 500 µM [2, 14]: 100 ± 3.8%
- inhibition at 1000 µM [2, 14]: 101 ± 5.2%
- inhibition at 2000 µM [2, 14]: 98 ± 5.7%
- inhibition at 500 µM [2, 15]: 2.2 ± 0.01%
- inhibition at 1000 µM [2, 15]: 2.8 ± 0.03%
- inhibition at 2000 µM [2, 15]: 3.2 ± 0.08%
- inhibition at 500 µM [3, 16]: 96 ± 4.7%
- inhibition at 1000 µM [3, 16]: 94 ± 4.2%
- inhibition at 2000 µM [3, 16]: 94 ± 2.9%
- inhibition at 1000 µM [3, 17]: 96 ± 2.5%
- inhibition at 2000 µM [3, 17]: 96 ± 3.3%
- inhibition at 500 µM [3, 18]: 98 ± 2.7%
- inhibition at 1000 µM [3, 18]: 96 ± 2.5%
- inhibition at 2000 µM [3, 18]: 96 ± 3.3%
- inhibition at 500 µM [3, 19]: 96 ± 4.7%
- inhibition at 1000 µM [3, 19]: 94 ± 4.2%
- inhibition at 2000 µM [3, 19]: 94 ± 2.9%
- inhibition at 500 µM [4, 20]: 92 ± 4.5%
- inhibition at 1000 µM [4, 20]: 93 ± 5.1%
- inhibition at 500 µM [4, 21]: 31 ± 1.5%
- inhibition at 1000 µM [4, 21]: 31 ± 2%
- inhibition at 2000 µM [4, 21]: 32 ± 1.9%
- inhibition at 500 µM [4, 22]: 94 ± 3.5%
- inhibition at 1000 µM [4, 22]: 96 ± 2.4%
- inhibition at 2000 µM [4, 22]: 99 ± 4.6%
- inhibition at 500 µM [4, 23]: 28 ± 0.8%
- inhibition at 1000 µM [4, 23]: 28 ± 0.6%
- inhibition at 2000 µM [4, 23]: 29 ± 0.4%
- Uptake of [3H]CQ (% non-expressing oocyte control), trans-stimulation ([5]; [test solute]i = 5 mM): 99 ± 2.1 % non-expressing oocyte control
- Uptake of [3H]CQ (% non-expressing oocyte control), trans-stimulation ([5]; [test solute]i = 45 mM (30 mM for some solutes due to solubility)): 99 ± 3.3 % non-expressing oocyte control
- Uptake of [3H]CQ (% PfCRTDd2 control), trans-stimulation, non-expressing oocytes ([5]; [test solute]i = 5 mM (intracellular)): 3.1 ± 0.08 % PfCRTDd2 control
- Uptake of [3H]CQ (% PfCRTDd2 control), trans-stimulation, non-expressing oocytes ([5]; [test solute]i = 45 mM (intracellular; 30 mM for some solutes due to solubility)): 2.9 ± 0.05 % PfCRTDd2 control
- activity at 5000 µM ([6]; PfCRT3D7 oocytes, [test solute]i = 5 mM, total [3H]CQ transport, normalised to the oocyte type control, read-out: Uptake of [3H]CQ (% PfCRT3D7 control), trans-stimulation): 101 ± 2.6%
- [3H]CQ transport (% PfCRT3D7 control), trans-stimulation, PfCRT3D7 ([6]; SEM): 0.4 ± 0.02 % PfCRT3D7 control
- activity at 5000 µM ([6]; [test solute]i = 5 mM (intracellular), PfCRT3D7 oocytes, normalised to oocyte type control, read-out: PfCRT-mediated [3H]CQ transport, trans-stimulation (% PfCRT3D7 control)): 99 ± 3.9%
- activity at 45000 µM ([6]; SEM, read-out: Uptake of [3H]CQ (% PfCRTDd2 control), trans-stimulation, PfCRT3D7): 3.3 ± 0.02%
- activity at 45000 µM ([6]; read-out: PfCRT-mediated [3H]CQ transport, trans-stimulation (% PfCRT3D7 control)): 97 ± 1.8%
- activity at 45000 µM ([6]; read-out: Uptake of [3H]CQ (% PfCRT3D7 control), trans-stimulation): 99 ± 2.6%
- activity at 5000 µM ([6]; total [3H]CQ transport, [test solute]i = 5 mM (intracellular), mean ± SEM, SEM, read-out: Uptake of [3H]CQ (% PfCRTDd2 control), trans-stimulation, PfCRT3D7): 3.4 ± 0.02%
- activity at 5000 µM ([7]; pH 5.5, read-out: PfCRT-mediated [3H]CQ transport, trans-stimulation (% PfCRTDd2 control), [test solute]i = 5 mM (intracellular), PfCRTDd2 oocytes, normalised to oocyte type control): 99 ± 3.5%
- activity at 5000 µM ([7]; pH 5.5, read-out: Uptake of [3H]CQ (% PfCRTDd2 control), trans-stimulation, PfCRTDd2, total [3H]CQ transport, [test solute]i = 5 mM (intracellular), mean ± SEM, SEM): 101 ± 2.2%
- activity at 5000 µM ([7]; pH 5.5, read-out: Uptake of [3H]CQ (% PfCRTDd2 control), trans-stimulation, PfCRTDd2 oocytes, [test solute]i = 5 mM, total [3H]CQ transport, normalised to the oocyte type control): 101 ± 2.2%
- activity at 45000 µM ([7]; pH 5.5, read-out: Uptake of [3H]CQ (% PfCRTDd2 control), trans-stimulation, PfCRTDd2 oocytes, total [3H]CQ transport, normalised to the oocyte type control): 96 ± 2.8%
- activity at 5000 µM ([7]; pH 5.5, read-out: [3H]CQ transport (% PfCRTDd2 control), trans-stimulation, PfCRTDd2, trans-stimulation, [test solute]i = 5 mM (injected), PfCRT-mediated component (background subtracted), mean ± SEM, SEM): 99 ± 3.5%
- activity at 45000 µM ([7]; pH 5.5, read-out: [3H]CQ transport (% PfCRTDd2 control), trans-stimulation, PfCRTDd2, trans-stimulation, PfCRT-mediated component (background subtracted), mean ± SEM, SEM): 94 ± 4.2%
- activity at 5000 µM ([8]; pH 5.5, read-out: PfCRT-mediated [3H]CQ transport, trans-stimulation (% PfCRTEcu1110 control), [test solute]i = 5 mM (intracellular), PfCRTEcu1110 oocytes, normalised to oocyte type control): 97 ± 2.4%
- activity at 5000 µM ([8]; pH 5.5, read-out: Uptake of [3H]CQ (% PfCRTEcu1110 control), trans-stimulation, PfCRTEcu1110 oocytes, [test solute]i = 5 mM, total [3H]CQ transport, normalised to the oocyte type control): 99 ± 3.6%
- activity at 45000 µM ([8]; pH 5.5, read-out: Uptake of [3H]CQ (% PfCRTEcu1110 control), trans-stimulation, PfCRTEcu1110 oocytes, [test solute]i = 45 mM (30 mM for some solutes due to solubility), total [3H]CQ transport, normalised to the oocyte type control): 100 ± 3.7%
- activity at 5000 µM ([8]; read-out: Uptake of [3H]CQ (% PfCRTDd2 control), trans-stimulation, PfCRTEcu1110, total [3H]CQ transport, [test solute]i = 5 mM (intracellular), mean ± SEM, SEM): 35 ± 1.5%
- activity at 45000 µM ([8]; read-out: Uptake of [3H]CQ (% PfCRTDd2 control), trans-stimulation, PfCRTEcu1110, total [3H]CQ transport, [test solute]i = 45 mM (intracellular; 30 mM for some solutes due to solubility), mean ± SEM, SEM): 36 ± 2.1%
- activity at 5000 µM [9]: 2.7 ± 0.06%
- Compounds that have been tested as potential co-substrates but are not required for influx of VF-6 via PfCRT into the oocyte [10]: X
- Tested as potential co-substrate but not required for influx of VF-6 via PfCRT into the oocyte [11]: X
